From patent US11220524B2, “Selective inhibitors of protein arginine methyltransferase 5 (PRMT5)” (PRELUDE THERAPEUTICS, INCORPORATED, priority 2017, dated 2022)
Structures can show the parent of a compound that is named as a salt. Where two headings read alike, the source gives them in different places.

Molecular target: PRMT5/MEP50 complex (Homo sapiens (Human), UniProt O14744)
Assay: Biochemical assay: PRMT5/MEP50 methylation of histone H2A with 3H-SAM, filter plate scintillation
Method: Biochemical Assay Protocol
Compounds were solubilized, and 3-fold diluted in 100% DMSO. […] Standard reactions were performed in a total volume of […] assay buffer, with histone H2A (5 μM final) as substrate. To this was added the PRMT5/MEP50 complex diluted to provide a final assay concentration of 5 nM and the compounds were allowed to preincubate for 15 to 20 minutes at room temperature. The reaction was initiated by adding S-[3H-methyl]-adenosyl-L-methionine (PerkinElmer) to final concentration of 1 μM. Following a 60 minutes incubation at 30° C., the reaction was stopped by adding 100 μL of 20% TCA. Each reaction was spotted onto filter plate (MultiScreen FB Filter Plate, Millipore), and washed 5 times with PBS buffer, Scintillation fluid was added to the filter plate and read in a scintillation counter. IC50 values were determined by fitting the data to the standard 4 parameters with Hill Slope using GraphPad Prism software.

[1] = biochemical potency, read-out: PRTMT5/MEP50 IC50
[2] = histone H2A 5 μM, SAM 1 μM, enzyme 5 nM, read-out: PRMT5/MEP50 IC50

PRMT5/MEP50 complex, sequence (O14744 whole entry): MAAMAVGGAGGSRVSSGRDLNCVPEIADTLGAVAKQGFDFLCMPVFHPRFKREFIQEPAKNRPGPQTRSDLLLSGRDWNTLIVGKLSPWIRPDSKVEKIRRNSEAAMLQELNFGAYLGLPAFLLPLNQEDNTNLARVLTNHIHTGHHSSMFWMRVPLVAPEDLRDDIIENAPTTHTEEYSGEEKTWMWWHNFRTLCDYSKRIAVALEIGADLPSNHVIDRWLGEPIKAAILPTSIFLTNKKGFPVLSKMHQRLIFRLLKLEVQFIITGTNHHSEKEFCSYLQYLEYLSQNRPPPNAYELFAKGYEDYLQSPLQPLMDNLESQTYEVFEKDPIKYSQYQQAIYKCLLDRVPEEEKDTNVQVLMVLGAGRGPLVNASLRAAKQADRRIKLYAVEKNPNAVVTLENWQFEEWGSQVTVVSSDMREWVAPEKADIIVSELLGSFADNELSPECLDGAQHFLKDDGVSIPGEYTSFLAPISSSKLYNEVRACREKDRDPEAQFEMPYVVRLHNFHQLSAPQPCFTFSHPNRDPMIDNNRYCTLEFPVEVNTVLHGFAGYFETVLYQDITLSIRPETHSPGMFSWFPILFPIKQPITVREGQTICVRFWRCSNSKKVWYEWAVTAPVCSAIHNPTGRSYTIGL
PRMT5/MEP50 complex, sequence (Q9BQA1 whole entry partner): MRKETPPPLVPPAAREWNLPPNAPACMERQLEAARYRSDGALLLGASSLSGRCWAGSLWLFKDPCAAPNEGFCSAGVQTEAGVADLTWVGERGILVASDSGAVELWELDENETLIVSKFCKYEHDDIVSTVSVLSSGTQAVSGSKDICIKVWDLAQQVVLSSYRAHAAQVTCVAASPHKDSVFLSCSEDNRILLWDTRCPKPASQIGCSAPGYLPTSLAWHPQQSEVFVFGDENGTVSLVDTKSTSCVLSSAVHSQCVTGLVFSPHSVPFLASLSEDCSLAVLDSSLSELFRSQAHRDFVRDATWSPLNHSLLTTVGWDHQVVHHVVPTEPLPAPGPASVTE

SMILES	IC50 [1]	IC50 [2]
N/N=c1/nc[nH]c2c1c(F)cn2[C@@H]1C[C@H]([C@H](O)c2ccc(Cl)cc2)[C@@H](O)[C@H]1O [Example 28-B, 7-[(1R,2S,3R,4R)-4-[(S)-(4-chlorophenyl)-hydroxy-methyl]-2,3-dihydroxy-cyclopentyl]-5-fluoro-H-pyrrolo[2,3-d]pyrimidin-4-one hydrazone hydrochloride]	1160 nM	
CO/N=c1/nc[nH]c2c1ccn2[C@@H]1C[C@H]([C@H](O)c2ccc(Cl)cc2)[C@@H](O)[C@H]1O [Example 49-B, (1S,2R,3R,5R)-3-[(S)-(4-chlorophenyl)-hydroxy-methyl]-5-[(4Z)-4-methoxyimino-1H-pyrrolo[2,3-d]pyrimidin-7-yl]cyclopentane-1,2-diol hydrochloride]	543 nM	
O/N=c1\nc[nH]c2c1ccn2[C@@H]1C[C@H]([C@H](O)c2ccc(F)c(F)c2)[C@@H](O)[C@H]1O [Example 88-B, 7-((1R,2S,3R,4R)-4-((S)-(3,4-difluorophenyl)(hydroxy)methyl)-2,3-dihydroxycyclopentyl)-1,7-dihydro-4H-pyrrolo[2,3-d]pyrimidin-4-one oxime]	37 nM	
CO/N=c1\nc[nH]c2c1ccn2[C@@H]1C[C@H]([C@H](O)c2ccc(F)c(F)c2)[C@@H](O)[C@H]1O [Example 89-B, 7-((1R,2S,3R,4R)-4-((S)-(3,4-difluorophenyl)(hydroxy)methyl)-2,3-dihydroxycyclopentyl)-1,7-dihydro-4H-pyrrolo[2,3-d]pyrimidin-4-one O-methyl oxime]	95 nM	
CCO/N=c1\[nH]cnc2c1ncn2[C@@H]1O[C@H]([C@](C)(O)c2ccc(Cl)c(Cl)c2)[C@@H](O)[C@H]1O [Example 93, (2S,3S,4R,5R)-2-[(1R)-Example 931-(3,4-dichlorophenyl)-1-hydroxy-ethyl]-5-[(6Z)-6-ethoxyimino-1H-purin-9-yl]tetrahydrofuran-3,4-diol]		920 nM
O/N=c1/nc[nH]c2c1ccn2[C@@H]1C[C@H]([C@H](O)c2ccc(Cl)c(Cl)c2)[C@@H](O)[C@H]1O [Example 93-B, 7-((1R,2S,3R,4R)-4-((S)-(3,4-dichlorophenyl)(hydroxy)methyl)-2,3-dihydroxycyclopentyl)-1,7-dihydro-4H-pyrrolo[2,3-d]pyrimidin-4-one oxime]	2.3 nM	
CO/N=c1\[nH]cnc2c1ncn2[C@@H]1O[C@H]([C@](C)(O)c2ccc(Cl)c(C)c2)[C@@H](O)[C@H]1O [Example 94, (2S,3S,4R,5R)-2-[(1R)-1-(4-chloro-3-methylphenyl)-1-hydroxy-ethyl]-5-[(6Z)-6-methoxyimino-1H-purin-9-yl]tetrahydrofuran-3,4-diol]		1620 nM
CCO/N=c1\[nH]cnc2c1ncn2[C@@H]1O[C@H]([C@](C)(O)c2ccc(Cl)c(C)c2)[C@@H](O)[C@H]1O [Example 95, (2S,3S,4R,5R)-2-[(1R)-1-(4-chloro-3-methylphenyl)-1-hydroxy-ethyl]-5-[(6Z)-6-ethoxyimino-1H-purin-9-yl]tetrahydrofuran-3,4-diol]		699 nM
CCO/N=c1\nc[nH]c2c1ccn2[C@@H]1O[C@H]([C@H](O)c2ccc(Cl)cc2)[C@@H](O)[C@H]1O [Example 97, 7-((2R,3R,4S,5R)-5-((R)-(4-chlorophenyl)(hydroxy)methyl)-3,4-dihydroxytetrahydrofuran-2-yl)-1,7-dihydro-4H-pyrrolo[2,3-d]pyrimidin-4-one O-ethyl oxime]		42 nM
CO/N=c1\nc[nH]c2c1c(CCO)cn2[C@@H]1O[C@H]([C@H](O)c2ccc(Cl)c(Cl)c2)[C@@H](O)[C@H]1O [Example 100, 7-((2R,3R,4S,5R)-5-((R)-(3,4-dichlorophenyl)(hydroxy)methyl)-3,4-dihydroxytetrahydrofuran-2-yl)-5-(2-hydroxyethyl)-1,5-dihydro-4H-7l4-pyrrolo[2,3-d]pyrimidin-4-one O-methyl oxime]		1770 nM
C#Cc1cn([C@@H]2O[C@H]([C@H](O)c3ccc(Cl)cc3)[C@@H](O)[C@H]2O)c2[nH]cn/c(=N\OC)c12 [Example 101, 7-((2R,3R,4S,5R)-5-((R)-(4-chlorophenyl)(hydroxy)methyl)-3,4-dihydroxytetrahydrofuran-2-yl)-5-ethynyl-1,7-dihydro-4H-pyrrolo[2,3-d]pyrimidin-4-one O-methyl oxime]		308 nM
C#Cc1cn([C@@H]2O[C@H]([C@H](O)c3ccc(Cl)c(Cl)c3)[C@@H](O)[C@H]2O)c2[nH]cn/c(=N\OC)c12 [Example 104, 7-((2R,3R,4S,5R)-5-((R)-(3,4-dichlorophenyl)(hydroxy)methyl)-3,4-dihydroxytetrahydrofuran-2-yl)-5-ethynyl-1,5-dihydro-4H-7l4-pyrrolo[2,3-d]pyrimidin-4-one O-methyl oxime]		10.2 nM
C[C@@](O)(C1C=C(Cl)C(Cl)=CC1)[C@H]1O[C@@H](n2ccc3/c(=N\O)nc[nH]c32)[C@H](O)[C@@H]1O (stereo partly drawn) [Example 105, 7-((2R,3R,4S,5S)-5-((1R)-1-(3,4-dichlorocyclohexa-2,4-dien-1-yl)-1-hydroxyethyl)-3,4-dihydroxytetrahydrofuran-2-yl)-1,7-dihydro-4H-pyrrolo[2,3-d]pyrimidin-4-one oxime]		0.2 nM
O[C@@H]1[C@H](O)[C@@H]([C@H](O)c2ccc(Cl)c(Cl)c2)O[C@H]1n1ccc2/c(=N/OCC(F)F)nc[nH]c21 [Example 106, 7-((2R,3R,4S,5R)-5-((R)-(3,4-dichlorophenyl)(hydroxy)methyl)-3,4-dihydroxytetrahydrofuran-2-yl)-1,4a,7,7a-tetrahydro-4H-pyrrolo[2,3-d]pyrimidin-4-one 0-(2,2-difluoroethyl) oxime]		113 nM
CO/N=c1\nc[nH]c2c1c(F)cn2[C@@H]1O[C@H]([C@](C)(O)c2ccc(Cl)c(Cl)c2)[C@@H](O)[C@H]1O [Example 107, 7-((2R,3R,4S,5S)-5-((R)-1-(3,4-dichlorophenyl)-1-hydroxyethyl)-3,4-dihydroxytetrahydrofuran-2-yl)-5-fluoro-1,7-dihydro-4H-pyrrolo[2,3-d]pyrimidin-4-one O-methyl oxime]		28 nM
N/N=c1/nc[nH]c2c1ncn2[C@@H]1O[C@H]([C@H](O)c2ccc(Cl)cc2)[C@@H](O)[C@H]1O [compound 39, (2R,3S,4R,5R)-2-[(R)-(4-chlorophenyl)-hydroxy-methyl]-5-(6-hydrazinopurin-9-yl) tetrahydrofuran-3,4-diol]		180 nM
CO/N=c1/nc[nH]c2c1ncn2[C@@H]1O[C@H]([C@H](O)c2ccc(Cl)cc2)[C@@H](O)[C@H]1O [compound 53, (2R,3S,4R,5R)-2-[(R)-(4-chlorophenyl)-hydroxy-methyl]-5-[6-methoxyimino-3H-purin-9-yl]tetrahydrofuran-3,4-diol trifluoroacetic Acid Salt]		526 nM
CO/N=c1\nc[nH]c2c1c(F)cn2[C@@H]1OC([C@H](O)c2ccc(Cl)cc2)[C@@H](O)[C@H]1O (stereo partly drawn) [compound 74, 7-((2R,3R,4S)-5-((R)-(4-chlorophenyl)(hydroxy)methyl)-3,4-dihydroxytetrahydrofuran-2-yl)-5-fluoro-1,7-dihydro-4H-pyrrolo[2,3-d]pyrimidin-4-one O-methyl oxime]		75.6 nM
CO/N=c1\nc[nH]c2c1ccn2[C@@H]1O[C@H]([C@H](O)c2ccc(C(F)(F)F)cc2)[C@@H](O)[C@H]1O [compound 75, 7-((2R,3R,4S,5R)-3,4-dihydroxy-5-((R)-hydroxy(4-(trifluoromethyl)phenyl)methyl)tetrahydrofuran-2-yl)-1,7-dihydro-4H-pyrrolo[2,3-d]pyrimidin-4-one O-methyl oxime]		95.4 nM
N/N=c1\nc[nH]c2c1ccn2[C@@H]1O[C@H]([C@H](O)c2ccc(C(F)(F)F)cc2)[C@@H](O)[C@H]1O [compound 76, (2R,3R,4S,5R)-2-((Z)-4-hydrazineylidene-1,4-dihydro-7H-pyrrolo[2,3-d]pyrimidin-7-yl)-5-((R)-hydroxy(4-(trifluoromethyl)phenyl)methyl)tetrahydrofuran-3,4-diol]		2.7 nM
Cc1cn([C@@H]2O[C@H]([C@H](O)c3ccc(Cl)cc3)[C@@H](O)[C@H]2O)c2[nH]cn/c(=N\O)c12 [compound 77, 7-((2R,3R,4S,5R)-5-((R)-(4-chlorophenyl)(hydroxy)methyl)-3,4-dihydroxytetrahydrofuran-2-yl)-5-methyl-1,7-dihydro-4H-pyrrolo[2,3-d]pyrimidin-4-one oxime]		118 nM
CO/N=c1\nc[nH]c2c1ccn2[C@@H]1OC([C@](O)(c2ccc(Cl)cc2)C(F)(F)F)[C@@H](O)[C@H]1O (stereo partly drawn) [compound 79, 7-((2R,3R,4S)-5-((R)-1-(4-chlorophenyl)-2,2,2-trifluoro-1-hydroxyethyl)-3,4-dihydroxytetrahydrofuran-2-yl)-1,7-dihydro-4H-pyrrolo[2,3-d]pyrimidin-4-one O-methyl oxime]		6460 nM
